Test results from patent US20120258980A1, “Antibacterial Agent for Drug-Resistant Bacteria, Method for Screening for Same, and Use of Same” (priority 2009, published 2012).
Read-outs that look alike come from different tables or passages of the source.

What was measured:
[1] = system: methicillin-susceptible S. aureus (MSSA), MRSA and mutants thereof; assay: MIC measurement, Test Example 3 (MSSA, MRSA and sequential gyrA/grlA quinolone-resistant mutants); type: cell-based, Staphylococcus aureus; conditions: for MIC: Staphylococcus aureus
Excerpt: That is, the first-step quinolone-resistant mutants are bacterial strains which are the same as their parent strains (clinical isolates) except that the genes shown in the corresponding parts of Table 1-1 are mutated. The second-step quinolone-resistant mutants are bacterial strains which are the same as the first-step quinolone-resistant mutants except that the genes shown in the corresponding parts of Table 1-1 are further mutated. The third-step quinolone-resistant mutants are bacterial strains which are the same as the second-step quinolone-resistant mutants except that the genes shown in the corresponding parts of Table 1-1 are further mutated. The fourth-step quinolone-resistant strain is a bacterial strain which is the same as the third-step quinolone-resistant mutant bacteria except that the gene shown in the corresponding part of Table 1-1 is further mutated.
(§1) Each of the bacterial strains listed in Table 1-1 was shake-cultured at 37° C. overnight in 4 mL of a medium (Tryptical Soy Broth: TSB, product of Becton Dickinson and Company). FDA209P was used as a control.
(§2) After completion of culturing, the resultant culture was suspended in a cation-adjusted Mueller Hinton Broth (CAMHB, product of Becton Dickinson and Company). Then, the obtained bacterial culture was adjusted in absorbance with the CAMHB so that the absorbance at 578 nm of the bacterial culture was adjusted to 0.3 measured by an absorption spectrometer. In addition, the resultant bacterial culture was 500-fold diluted with the CAMHB.
(§3) Each of the 500-fold diluted, pre-cultured bacterial cultures was added at 50 μL/well to the CAMHB containing the quinolones and the nybomycins at various concentrations (50 μL/well), followed by statically culturing at 37° C. overnight.
(§4) After completion of culturing, the growth of the bacteria was visually determined based on turbidity to measure MIC in each bacterial strain.

[2] = system: VISA clinical isolates of MRSA (VI-MRSA) and of MSSA (VI-MSSA); assay: microbe, parasite or virus in culture; type: cell-based, Staphylococcus aureus
Description: as §1, §2, §3, §4
(§5) Here, the glycopeptides used were VCM and TEIC. The β-lactam used was OXA.

VRSA clinical isolates = assay: microbe, parasite or virus in culture; type: cell-based; conditions: Staphylococcus aureus
Description: as §1, §2, §3, §4, §5

Enterococcus faecalis = assay: MIC measurement, Test Example 6 (enterococcus); type: cell-based; conditions: Enterococcus faecalis, read-out: MIC
Description: as §1, §2, §3, §4
Quinolones and nybomycins were evaluated for antibacterial activity against Enterococcus faecalis shown in Table 6, wherein the other strains than NCTC12201 and NCTC12203 were subdivided from Shionogi & Co., Ltd (note that these strains are available also from the Department of Bacteriology, Juntendo University). The NCTC strains are both vancomycin-resistant E. faecalis and available from the National Collection of Type Cultures (NCTC).

Cc1cc(=O)n(C)c2c3c4c(cc12)c(C)cc(=O)n4CO3 [DNM, deoxynybomycin]
32 µg/mL: MIC (Enterococcus faecalis; E. faecalis 36-15718, quinolone-susceptible enterococci)
0.33 µg/mL: MIC ([2]; Staphylococcus aureus, JCSC7193, VI-MRSA, Thailand)
2 µg/mL: MIC ([2]; Staphylococcus aureus, MRSA / MSSA / NRS 118 / VISA, NRS118, VI-MRSA, America) | MIC (Enterococcus faecalis; E. faecalis 36-15686, quinolone-resistant enterococci) | MIC (Enterococcus faecalis; E. faecalis 36-15694, quinolone-resistant enterococci) | MIC (Enterococcus faecalis; E. faecalis 36-15726, quinolone-resistant enterococci)
0.25 µg/mL: MIC ([2]; Staphylococcus aureus, 99/3700-W, VI-MRSA, The United Kingdom) | MIC ([2]; Staphylococcus aureus, BR1, VI-MRSA, Brazil) | MIC ([2]; Staphylococcus aureus, BR4, VI-MRSA, Brazil) | MIC ([2]; Staphylococcus aureus, BR5, VI-MRSA, Brazil) | MIC ([2]; Staphylococcus aureus, HIP07920, VI-MRSA, America) | MIC ([2]; Staphylococcus aureus, HIP09662, VI-MRSA, America) | MIC ([2]; Staphylococcus aureus, HIP09740, VI-MRSA, America) | MIC ([2]; Staphylococcus aureus, HIP10267, VI-MRSA, America) | MIC ([2]; Staphylococcus aureus, HIP13036, VI-MRSA, America) | MIC ([2]; Staphylococcus aureus, LIM2, VI-MRSA, France) | MIC ([2]; Staphylococcus aureus, Mu50, VI-MRSA, Japan) | MIC ([2]; Staphylococcus aureus, NJ (HIP5836), VI-MRSA, America) | MIC (Enterococcus faecalis; E. faecalis 36-15703, quinolone-resistant enterococci)
1 µg/mL: MIC ([2]; Staphylococcus aureus, 99/3759-V, VI-MRSA, The United Kingdom) | MIC ([2]; Staphylococcus aureus, HIP09737, VI-MSSA, America) | MIC ([2]; Staphylococcus aureus, IL (HIP7737), VI-MRSA, America) | MIC ([2]; Staphylococcus aureus, MRSA / MSSA / NRS 79 / VISA, NRS79, VI-MRSA, America)
4 µg/mL: MIC (Enterococcus faecalis; E. faecalis 36-15716, quinolone-resistant enterococci) | MIC (Enterococcus faecalis; E. faecalis 36-15722, quinolone-resistant enterococci)
> 64 µg/mL: MIC ([2]; Staphylococcus aureus, SA MER-S6, VI-MSSA, France) | MIC ([2]; Staphylococcus aureus, SA MER-S12, VI-MSSA, France) | MIC ([2]; Staphylococcus aureus, SA MER-S20, VI-MSSA, France) | MIC (Enterococcus faecalis; E. faecalis 36-15672, quinolone-susceptible enterococci) | MIC (Enterococcus faecalis; E. faecalis 36-15673, quinolone-susceptible enterococci) | MIC (Enterococcus faecalis; E. faecalis 36-15678, quinolone-susceptible enterococci) | MIC (Enterococcus faecalis; E. faecalis 36-15688, quinolone-susceptible enterococci) | MIC (Enterococcus faecalis; E. faecalis 36-15696, quinolone-susceptible enterococci) | MIC (Enterococcus faecalis; E. faecalis 36-15720, quinolone-susceptible enterococci) | MIC (Enterococcus faecalis; E. faecalis 36-15736, quinolone-susceptible enterococci) | MIC (Enterococcus faecalis; E. faecalis 36-15741, quinolone-susceptible enterococci) | MIC (Enterococcus faecalis; NCTC 12203 / VRE, E. faecalis NCTC12203, vancomycin-resistant (VRE), quinolone-susceptible enterococci)
16 µg/mL: MIC (Enterococcus faecalis; NCTC 12201 / VRE, E. faecalis NCTC12201, vancomycin-resistant (VRE), quinolone-susceptible enterococci)
0.125 µg/mL: MIC ([2]; Staphylococcus aureus, 28160, VI-MRSA, South African Republic) | MIC ([2]; Staphylococcus aureus, 98141, VI-MRSA, France) | MIC ([2]; Staphylococcus aureus, AMC11094, VI-MRSA, Korea) | MIC ([2]; Staphylococcus aureus, B7 (JCSC4852), VI-MRSA, Taiwan) | MIC ([2]; Staphylococcus aureus, BR2, VI-MRSA, Brazil) | MIC ([2]; Staphylococcus aureus, BR3, VI-MRSA, Brazil) | MIC ([2]; Staphylococcus aureus, HIP06297, VI-MRSA, America) | MIC ([2]; Staphylococcus aureus, HIP09313, VI-MRSA, America) | MIC ([2]; Staphylococcus aureus, HIP12864, VI-MRSA, America) | MIC ([2]; Staphylococcus aureus, HIP13057, VI-MRSA, America) | MIC ([2]; Staphylococcus aureus, PC, VI-MRSA, America) | MIC (VRSA clinical isolates; VRS2, VRSA, Pennsylvania) | MIC (VRSA clinical isolates; VRS7, VRSA, Michigan)
higher than that of NM: antibacterial activity, comparison between NM and DNM ([1]; Table 1-2 strains)
≤ 0.063 µg/mL: MIC ([1]; MR5867-2, second-step mutant, further gyrA S84L) | MIC ([1]; MR5867-3, third-step mutant, further grlA S80F) | MIC ([1]; MR5867-4, fourth-step mutant, further gyrA E88K) | MIC ([1]; MS5952-3, third-step mutant, further grlA A116V) | MIC ([2]; Staphylococcus aureus, A7 (JCSC4842), VI-MRSA, Taiwan) | MIC ([2]; Staphylococcus aureus, HIP10540, VI-MRSA, America) | MIC ([2]; Staphylococcus aureus, LY-1999-01, VI-MSSA, Oman) | MIC ([2]; Staphylococcus aureus, LY-1999-03, VI-MRSA, Oman) | MIC ([2]; Staphylococcus aureus, MI (HIP5827), VI-MRSA, America) | MIC ([2]; Staphylococcus aureus, MRSA / MSSA / NRS 76 / VISA, NRS76, VI-MSSA, America) | MIC (VRSA clinical isolates; VRS1, VRSA, Michigan) | MIC (VRSA clinical isolates; VRS3, VRSA, New York) | MIC (VRSA clinical isolates; VRS4, VRSA, New York) | MIC (VRSA clinical isolates; VRS5, VRSA, Michigan) | MIC (VRSA clinical isolates; VRS6, VRSA, Michigan)
64 µg/mL: MIC (Enterococcus faecalis; E. faecalis 36-15730, quinolone-susceptible enterococci)
0.16 µg/mL: MIC ([2]; Staphylococcus aureus, JCSC7195, VI-MRSA, Thailand) | MIC ([2]; Staphylococcus aureus, JCSC7203, VI-MRSA, Thailand)
0.5 µg/mL: MIC ([1]; MS5935-2, second-step mutant, further gyrA S84L) | MIC ([1]; MS5935-3, third-step mutant, further grlA E84K) | MIC ([1]; MS5952-2, second-step mutant, further gyrA S84L) | MIC ([2]; Staphylococcus aureus, HIP06854, VI-MRSA, America) | MIC ([2]; Staphylococcus aureus, HIP07930, VI-MRSA, America) | MIC ([2]; Staphylococcus aureus, HIP08926, VI-MRSA, America) | MIC ([2]; Staphylococcus aureus, HIP09143, VI-MRSA, America) | MIC ([2]; Staphylococcus aureus, HIP09433, VI-MRSA, America) | MIC ([2]; Staphylococcus aureus, HIP09735, VI-MRSA, America) | MIC ([2]; Staphylococcus aureus, MRSA / MSSA / NRS 126 / VISA, NRS126, VI-MRSA, America) | MIC ([2]; Staphylococcus aureus, Mu3, VI-MRSA, Japan) | MIC ([2]; Staphylococcus aureus, P1V44, VI-MSSA, Belgium)
